Source: patent publication US20240158446A1, “CYCLIC COMPOUND HAVING SELECTIVE INHIBITORY ACTION ON KRAS OVER HRAS AND NRAS” (CHUGAI SEIYAKU KABUSHIKI KAISHA, priority 2021, published 2024)
Read-outs that look alike come from different tables or passages of the source. *1 amine or outer side, *2 acyl side, *3 side chain or, on linkers, in order; H or OH if unused. Where a SMILES comes first, the peptide text is derived from it. Bridges are numbered along the chain shown (N, C = ends). [ ]: non-standard residue; d: D form. The star is where a group is joined. hPhe(3-Cl-4-CF3) = N[C@@H](CCc1ccc(C(F)(F)F)c(Cl)c1)C(=O)O; X5 = C=CCN([C@@H](Cc1ccc(C(F)(F)F)cc1)C(=O)[*:2])[*:1]; NMeGly(cPent) = CN[C@H](C(=O)O)C1CCCC1; NMeD = CN[C@@H](CC(=O)O)C(=O)O; NMeL = CN[C@@H](CC(C)C)C(=O)O; Morpholide = C1CN(*)CCO1; Ac5c = NC1(C(=O)O)CCCC1; Sar = CNCC(=O)O

Experiments:
[1] = target: GDP-bound KRAS wild-type protein (Homo sapiens, UniProt P01116); experiment: Binding to KRAS by surface plasmon resonance (SPR), Single Cycle Kinetics; settings: GDP-bound KRAS wild-type protein, read-out: KRAS KD
Sequence of GDP-bound KRAS wild-type protein (P01116 whole entry): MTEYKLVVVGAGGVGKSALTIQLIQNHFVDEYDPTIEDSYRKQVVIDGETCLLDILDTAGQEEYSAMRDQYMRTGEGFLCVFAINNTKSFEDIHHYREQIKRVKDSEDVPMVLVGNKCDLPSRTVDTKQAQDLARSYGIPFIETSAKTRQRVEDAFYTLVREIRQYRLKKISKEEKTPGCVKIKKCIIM

[2] = target: GDP-bound NRAS wild-type protein (Homo sapiens, UniProt P01111); experiment: Binding to NRAS by surface plasmon resonance (SPR), Single Cycle Kinetics; settings: for NRAS/KRAS (ratio of KD value with respect to GDP-bound NRAS wild-type protein to KD value with respect to KRAS): SPR KD ratio NRAS/KRAS, class symbols; for NRAS/KRAS (ratio of KD value for NRAS to KD value for KRAS): GDP-bound NRAS wild-type protein vs GDP-bound KRAS wild-type protein
Sequence of GDP-bound NRAS wild-type protein (P01111 whole entry): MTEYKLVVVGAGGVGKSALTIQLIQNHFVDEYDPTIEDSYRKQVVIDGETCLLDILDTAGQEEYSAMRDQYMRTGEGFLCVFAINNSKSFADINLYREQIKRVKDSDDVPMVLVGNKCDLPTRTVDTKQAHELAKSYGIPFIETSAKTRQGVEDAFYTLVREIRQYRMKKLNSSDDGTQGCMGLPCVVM

[3] = target: GDP-bound HRAS wild-type protein (Homo sapiens, UniProt P01112); experiment: Binding to HRAS by surface plasmon resonance (SPR), Single Cycle Kinetics; settings: for HRAS/KRAS (ratio of KD value with respect to GDP-bound HRAS wild-type protein to KD value with respect to KRAS): SPR KD ratio HRAS/KRAS, class symbols; for HRAS/KRAS (ratio of KD value for HRAS to KD value for KRAS): GDP-bound HRAS wild-type protein vs GDP-bound KRAS wild-type protein
Sequence of GDP-bound HRAS wild-type protein (P01112 whole entry): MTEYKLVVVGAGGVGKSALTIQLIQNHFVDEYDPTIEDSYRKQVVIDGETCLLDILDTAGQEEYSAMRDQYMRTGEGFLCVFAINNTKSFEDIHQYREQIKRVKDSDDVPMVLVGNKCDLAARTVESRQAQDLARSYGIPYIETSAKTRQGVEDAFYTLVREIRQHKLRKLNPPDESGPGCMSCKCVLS

[4] = tested on: human lung cancer strain NCI-H441;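 also: cell proliferation inhibition after four days measured by CellTiter-Glo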
[5] = SPR Single Cycle Kinetics, 1:1 binding model

Row | SMILES | IC50 [4] | Kd ([1]; SPR, Single Cycle Kinetics) | NRAS/KRAS (ratio of KD value for NRAS to KD value for KRAS) ([2]; SPR) | HRAS/KRAS (ratio of KD value for HRAS to KD value for KRAS) ([3]; SPR) | further results
1 | CCC[C@H]1C(=O)N[C@@H](CC(C)C)C(=O)N2C[C@@H](OC)C[C@H]2C(=O)N(C)[C@H]2C/C=C\CCN(C2=O)[C@@H](Cc2ccc(C)cc2)C(=O)N(C)CC(=O)N[C@@H](CCc2ccc(C(F)(F)F)c(Cl)c2)C(=O)N2C[C@H](OCC)C[C@H]2C(=O)NC2(CCC2)C(=O)N(C)[C@@H](C2CCCC2)C(=O)N(C)[C@H](C(=O)N(C)C)CC(=O)N1C [PP2549] | 506 nM | – | – | – | Kd [1, 5]: 6 nM; NRAS/KRAS (ratio of KD value with respect to GDP-bound NRAS wild-type protein to KD value with respect to KRAS) [2]: A (a compound having 10 or more and less than 20 is denoted as A); HRAS/KRAS (ratio of KD value with respect to GDP-bound HRAS wild-type protein to KD value with respect to KRAS) [3]: B (a compound having 3 or more and less than 10 is denoted as B)
2 | CCO[C@@H]1C[C@H]2C(=O)NC3(CCOCC3)C(=O)N(C)[C@@H](C3CCCC3)C(=O)N(C)[C@H](C(=O)N(C)C)CC(=O)N(C)[C@@H](CC)C(=O)N[C@@H]([C@@H](C)CC)C(=O)N(C)CC(=O)N(C)[C@H]3C/C=C\CCN(C3=O)[C@@H](Cc3ccc(C(F)(F)F)cc3)C(=O)N(C)CC(=O)N[C@@H](CCc3cc(F)c(C(F)(F)F)c(F)c3)C(=O)N2C1 [PP1279] | 72.6 nM | – | – | – | Kd ([1]; SPR, Single Cycle Kinetics, 1:1 binding model): 0.27 nM; NRAS/KRAS (ratio of KD value for NRAS to KD value for KRAS) ([2]; SPR, KD ratio class): A (a compound having 10 or more and less than 20 is denoted as A); HRAS/KRAS (ratio of KD value for HRAS to KD value for KRAS) ([3]; SPR, KD ratio class): A (a compound having 10 or more and less than 20 is denoted as A)
3 | CCOC[C@H]1C(=O)N[C@@H]([C@@H](C)CC)C(=O)N2CCC[C@H]2C(=O)N(C)[C@H]2C/C=C\CCN(C2=O)[C@@H](CC2CCCCC2)C(=O)N(C)CC(=O)N[C@@H](CCc2ccc(C(F)(F)F)c(OC)c2)C(=O)N2C[C@@H](C)C[C@H]2C(=O)N(C)C2(CCC2)C(=O)N(C)[C@@H](C2CCCC2)C(=O)N(C)[C@H](C(=O)N(C)C)CC(=O)N1C [PP2375] | 172 nM | 1.1 nM | A (a compound having 10 or more and less than 20 is denoted as A) | B (a compound having 3 or more and less than 10 is denoted as B) | –
4 | C=CCN1C(=O)CN(C)C(=O)CN(C)C(=O)[C@H]([C@@H](C)CC)NC(=O)[C@H](CC(C)C)N(C)C(=O)C[C@@H](C(=O)N2CCOCC2)N(C)C(=O)[C@H](C2CCCC2)N(C)C(=O)C2(CCCC2)NC(=O)[C@@H]2CCCN2C(=O)[C@H](CCc2ccc(C(F)(F)F)c(Cl)c2)NC(=O)CN(C)C(=O)[C@@H]1Cc1ccc(C(F)(F)F)cc1 [PP0128] ([NMeL]I[Sar][Sar][X5][Sar][hPhe(3-Cl-4-CF3)]P[Ac5c][NMeGly(cPent)][NMeD]-Morpholide; lactam N-11) | 10.4 nM | – | C (A compound having a KD ratio of 0.1 or more and less than 3 is denoted as C) | C (A compound having a KD ratio of 0.1 or more and less than 3 is denoted as C) | Kd [1, 5]: 0.25 nM
5 | CCOC[C@H]1C(=O)N[C@@H]([C@@H](C)CC)C(=O)N(C)CC(=O)N(C)[C@H]2C/C=C\CCN(C2=O)[C@@H](Cc2ccc(C)cc2)C(=O)N(C)CC(=O)N[C@@H](CCc2ccc(C(F)(F)F)c(Cl)c2)C(=O)N2C[C@@H](C)C[C@H]2C(=O)NC2(CC(C)(C)C2)C(=O)N(C)[C@@H](C2CCCC2)C(=O)N(C)[C@H](C(=O)N(CC)CC)CC(=O)N1C [PP2465] | 39.4 nM | 0.51 nM | AA (a compound having 20 or more is denoted as AA) | A (a compound having 10 or more and less than 20 is denoted as A) | –
6 | CCO[C@@H]1C[C@H]2C(=O)NC3(CCC3)C(=O)N(C)[C@@H](C3CCCC3)C(=O)N(C)[C@H](C(=O)N3CCOCC3)CC(=O)N(C)[C@@H](COC)C(=O)N[C@@H]([C@@H](C)CC)C(=O)N(C)CC(=O)N(C)[C@H]3CCCCCN(C3=O)[C@@H](Cc3ccc(F)cc3)C(=O)N(C)CC(=O)N[C@@H](CCc3cc(F)c(C(F)(F)F)c(F)c3)C(=O)N2C1 [PP1179] | 56.9 nM | 0.091 nM | B (a compound having 3 or more and less than 10 is denoted as B) | B (a compound having 3 or more and less than 10 is denoted as B) | –
7 | CCO[C@@H]1C[C@H]2C(=O)NC3(CCC3)C(=O)N(C)[C@@H](C(CC)CC)C(=O)N(C)[C@H](C(=O)N(C)C)CC(=O)N(C)[C@@H](CC(C)C)C(=O)N[C@@H]([C@@H](C)CC)C(=O)N(C)CC(=O)N(C)[C@H]3C/C=C\CCN(C3=O)[C@@H](Cc3ccc(C(F)(F)F)cc3)C(=O)N(C)CC(=O)N[C@@H](CCc3cc(F)c(C(F)(F)F)c(F)c3)C(=O)N2C1 [PP1201] | 9.7 nM | 0.17 nM | AA (a compound having 20 or more is denoted as AA) | A (a compound having 10 or more and less than 20 is denoted as A) | –
8 | CC[C@H](C)[C@@H]1NC(=O)[C@H](CC(C)C)N(C)C(=O)C[C@@H](C(=O)N(C)C)N(C)C(=O)[C@H](C2CCCC2)N(C)C(=O)C2(CCC2)N(C)C(=O)[C@@H]2CCCN2C(=O)[C@H](CCc2cc(F)c(C(F)(F)F)c(F)c2)NC(=O)CN(C)C(=O)[C@H](Cc2ccc(C)cc2)N2CC/C=C\C[C@@H](C2=O)N(C)C(=O)CN(C)C1=O [PP1791] | – | 0.042 nM | – | – | NRAS/KRAS (KD ratio) ([2]; ratio of KD for GDP-bound NRAS wild-type protein to KD for KRAS, SPR): A (a compound having 10 or more and less than 20 is denoted as A); HRAS/KRAS (KD ratio) ([3]; ratio of KD for GDP-bound HRAS wild-type protein to KD for KRAS, SPR): A (a compound having 10 or more and less than 20 is denoted as A); IC50 ([4]; read-out: NCI-H441 IC50, NCI-H441 cell proliferation, 4 days, CellTiter-Glo): 3.7 nM
9 | CCOC[C@H]1C(=O)N[C@@H]([C@@H](C)OCC)C(=O)N2CCC[C@H]2C(=O)N(C)[C@H]2C/C=C\CCN(C2=O)[C@@H](Cc2ccc(C)cc2)C(=O)N(C)CC(=O)N[C@@H](CCc2ccc(C(F)(F)F)c(OC)c2)C(=O)N2C[C@@H](C)C[C@H]2C(=O)NC2(CC(C)(C)C2)C(=O)N(C)[C@@H](C2CCCC2)C(=O)N(C)[C@H](C(=O)N(C)CC)CC(=O)N1C [PP2433] | 120 nM | 2.1 nM | AA (a compound having 20 or more is denoted as AA) | A (a compound having 10 or more and less than 20 is denoted as A) | –
10 | CCC[C@H]1C(=O)N[C@@H]([C@@H](C)CC)C(=O)N(C2CC2)CC(=O)N(C)[C@H]2C/C=C\CCN(C2=O)[C@@H](CC2CCC(F)(F)CC2)C(=O)N(C)CC(=O)N[C@@H](CCc2ccc(C(F)(F)F)c(OC)c2)C(=O)N2C[C@@H](C)C[C@H]2C(=O)N(C)C2(CCC2)C(=O)N(C)[C@@H](C2CCCC2)C(=O)N(C)[C@H](C(=O)N(C)C)CC(=O)N1C [PP2378] | 48.3 nM | 0.88 nM | B (a compound having 3 or more and less than 10 is denoted as B) | A (a compound having 10 or more and less than 20 is denoted as A) | –
11 | CCC[C@H]1C(=O)N[C@@H]([C@@H](C)CC)C(=O)N2C[C@@H](OC)C[C@H]2C(=O)N(C)[C@H]2C/C=C\CCN(C2=O)[C@@H](Cc2ccc(C)cc2)C(=O)N(C)CC(=O)N[C@@H](CCc2ccc(C(F)(F)F)c(OC)c2)C(=O)N2C[C@@H](C)C[C@H]2C(=O)NC2(CC(C)(C)C2)C(=O)N(C)[C@@H](C2CCCC2)C(=O)N(C)[C@H](C(=O)N(C)C)CC(=O)N1C [PP2388] | 22.9 nM | 0.33 nM | A (a compound having 10 or more and less than 20 is denoted as A) | B (a compound having 3 or more and less than 10 is denoted as B) | –
12 | CCC(CC)[C@H]1C(=O)N(C)[C@H](C(=O)N(C)C)CC(=O)N(C)[C@@H](COC)C(=O)N[C@@H]([C@@H](C)CC)C(=O)N(C2CC2)CC(=O)N(C)[C@H]2C/C=C\CCN(C2=O)[C@@H](Cc2ccc(C)cc2)C(=O)N(C)CC(=O)N[C@@H](CCc2cc(F)c(C(F)(F)F)c(F)c2)C(=O)N2C[C@H](OC3CCCC3)C[C@H]2C(=O)NC2(CC(C)(C)C2)C(=O)N1C [PP2619] | 132 nM | – | – | – | Kd [1, 5]: 1.2 nM; NRAS/KRAS (ratio of KD value with respect to GDP-bound NRAS wild-type protein to KD value with respect to KRAS) [2]: AA (a compound having 20 or more is denoted as AA); HRAS/KRAS (ratio of KD value with respect to GDP-bound HRAS wild-type protein to KD value with respect to KRAS) [3]: A (a compound having 10 or more and less than 20 is denoted as A)
